Results on 15 compounds are retold here after patent US6984641B2, “Carboline derivatives as PDE5 inhibitors” (Lilly Icos LLC., priority 2001, dated 2006).

One experiment addresses human recombinant PDE5 (Homo sapiens, UniProt O76074). Kind of experiment: Inhibitory effect on cGMP-PDE (one-step assay, 8-[H3]-cGMP), human recombinant PDE5. The format is biochemical. The protocol: The compounds of the present invention were tested for an ability to inhibit PDE5. The ability of a compound to inhibit PDE5 activity is related to the IC50 yalue for the compound, i.e., the concentration of inhibitor required for 50% inhibition of enzyme activity. The IC50 value for compounds of the present invention were determined using recombinant human PDE5. […]
Cell pellets (29 g) were thawed on ice with an equal volume of Lysis Buffer (25 mM Tris HCl, pH 8, 5 mM MgCl2, 0.25 mM DTT, 1 mM benzamidine, and 10 μM ZnSO4). Cells were lysed in a Microfluidizer® (Microfluidics Corp.) using nitrogen at 20,000 psi. The lysate was centrifuged and filtered through 0.45 μm disposable filters. The filtrate was applied to a 150 mL column of Q SEPHAROSE® Fast-Flow (Pharmacia). The column was washed with 1.5 volumes of Buffer A (20 mM Bis-Tris Propane, pH 6.8, 1 mM MgCl2, 0.25 mM DTT, 10 μM ZnSO4) and eluted with a step gradient of 125 mM NaCl in Buffer A followed by a linear gradient of 125–1000 mM NaCl in Buffer A. Active fractions from the linear gradient were applied to a 180 mL hydroxyapatite column in Buffer B (20 mM Bis-Tris Propane (pH 6.8), 1 mM MgCl2, 0.25 mM DTT, 10 μM ZnSO4, and 250 mM KCl). After loading, the column was washed with 2 volumes of Buffer B and eluted with a linear gradient of 0–125 mM potassium phosphate in Buffer B. Active fractions were pooled, precipitated with 60% ammonium sulfate, and resuspended in Buffer C (20 mM Bis-Tris Propane, pH 6.8, 125 mM NaCl, 0.5 mM DTT, and 10 μM ZnSO4). The pool was applied to a 140 mL column of SEPHA-CRYL® S-300 HR and eluted with Buffer C. Active fractions were diluted to 50% glycerol and stored at −20° C.
(§1) CGMP-PDE activity of compounds of the present invention was measured using a one-step assay adapted from Wells et al., Biochim. Biophys. Acta, 384, 430 (1975). The reaction medium contained 50 mM Tris-HCl, pH 7.5, 5 mM magnesium acetate, 250 μg/ml 5′-Nucleotidase, 1 mM EGTA, and 0.15 μM 8-[H^3]-cGMP. Unless otherwise indicated, the enzyme used was a human recombinant PDE5 (ICOS Corp., Bothell, Wash.).
(§2) Compounds of the invention were dissolved in DMSO finally present at 2% in the assay.

The next experiment concerns the target T1, PDE5 (bovine aorta) (Bos taurus, UniProt Q28156).
T1 construct: from tissue; host or cells: bovine aorta
Kind of experiment: Inhibitory effect on cGMP-PDE (one-step assay), enzyme from bovine aorta. Particulars: vs. bovine aorta (footnote 1). The format is biochemical. The protocol:
as §1, §2

Turning to `O=C1COC[C@@H]2Cc3c([nH]c4ccccc34)[C@H](c3ccc4c(c3)OCO4)N12` (racemic) [Example 3, (+−,cis)-10-Benzo[1,3]dioxol-5-yl-5a,6,10,11-tetrahydro-5H-7-oxa-9a,11-diazabenzo[b]-fluoren-9-one], the IC50 at human recombinant PDE5 stood at 70 nM. As to `COc1ccc([C@H]2c3[nH]c4ccccc4c3C[C@H]3COCC(=O)N32)cc1` (racemic) [Example 4, (+−,cis)-10-(4-Methoxyphenyl)-5a,6,10,11-tetrahydro-5H-7-oxa-9a,11-diazabenzo[b]fluoren-9-one], the IC50 at human recombinant PDE5 worked out at 300 nM. Take `O=C1CCC(=O)N2[C@H](c3ccc4c(c3)OCO4)c3[nH]c4ccccc4c3C[C@@H]12` (racemic) [Example 6, (+−,trans)-6-Benzo[1,3]dioxol-5-yl-5,6,9,10,11a,12-hexahydroindolo[3,2-b]quinolizine-8,11-dione]: the IC50 at human recombinant PDE5 is 550 nM. Still for that read-out and setting: in the case of `CN1CN2[C@H](c3ccc4c(c3)OCO4)c3[nH]c4ccccc4c3C[C@@H]2C(=O)N1C` [Example 1, (5aR,10R)-10-Benzo[1,3]dioxol-5-yl-7,8-dimethyl-5,5a,8,9,10,11-hexahydro-7H-7,8,9a,11-tetraazabenzo[b]floren-6-one] it was 93 nM. `COc1ccc(C2c3[nH]c4ccccc4c3CC3C(=O)N(Cc4ccccc4)C(=O)CN32)cc1` (stereo not drawn) [Example 2, 2-Benzyl-6-(4-methoxyphenyl)-6,7,12,12a-tetrahydro-pyrazino[1′,2′:1,6]pyrido[3,4-b]indole-1,3-dione] had an IC50 on PDE5 (bovine aorta) of 340 nM. For the compound `COC(=O)C1CC(=O)N2[C@H](c3ccc4c(c3)OCO4)c3[nH]c4ccccc4c3C[C@@H]2C1O` (stereo partly drawn) [Example 5, (+−,cis)-6-Benzo[1,3]dioxol-5-yl-11-hydroxy-8-oxa-5,6,8,9,11a,12-hexahydroindolo[3,2-b]-guinolizine-10-carboxylic acid methyl ester], the concentration for half-maximal inhibition (IC50) at human recombinant PDE5 was 80 nM. Same read-out and setting: for `O=C1OCC(=O)N2[C@H](c3ccc4c(c3)OCO4)c3[nH]c4ccccc4c3C[C@H]12` [Example 7, (6R,11aS)-10-Benzo[1,3]dioxol-5-yl-5,5a,10,11-tetrahydro-7-oxa-9a,11-diazabenzo[b]fluorene-6.9-dione] the value was 50 nM. On PDE5 (bovine aorta), `O=C1CC(=O)N2CCc3c([nH]c4ccccc34)C2C1` (stereo not drawn) [Example 8, 6,7,12,12b-Tetrahydro-1H-indolo[2,3-a]-quinolizine-2,4-dione] came in with an IC50 of 250 nM. At PDE5 (bovine aorta), `COc1cc2c(cc1O)CN1CCc3c([nH]c4ccccc34)C1C2` (stereo not drawn) [Example 15, 2-Methoxy-5,7,8,13,13b,14-hexahydroindolo-[2′,3′:3,4]pyrido[1,2-b]isoquinolin-3-ol] came in with an IC50 of 300 nM.

Turning to `O=C1Nc2ccccc2C2c3[nH]c4ccccc4c3CCN12` (stereo not drawn) [Example 16, 7,8,13,13b-Tetrahydro-5H-5,6a,13-triazaindeno-[1,2-c]phenanthren-6-one], the IC50 against PDE5 (bovine aorta) was found to be 900 nM.

Regarding `Cn1c2ccccc2c2c(=O)n3c(cc21)-c1[nH]c2ccccc2c1CC3` [Example 18], the IC50 against PDE5 (bovine aorta) came out at 70 nM.

For the compound `CC1=CCC(/C=C/C(=O)N2CCc3c([nH]c4ccccc34)C2c2ccc3c(c2)OCO3)CC1` (stereo not drawn) [Example 20], the IC50 on human recombinant PDE5 came to 180 nM. On to `Cc1cccc2c3c([nH]c12)C(c1ccc2c(c1)OCO2)N(C(=O)/C=C/c1ccc(C(=O)O)cc1)CC3` (stereo not drawn) [Example 21], for which the IC50 at human recombinant PDE5 worked out at 3 nM.

As for `O=C(/C=C/c1ccccc1)N1CCc2c([nH]c3cc(Br)ccc23)C1c1ccc2c(c1)OCO2` (stereo not drawn) [Example 22], the IC50 at human recombinant PDE5 was 26 nM. Take `O=C(/C=C/c1ccccc1)N1CCc2c([nH]c3cc(-c4ccccc4)ccc23)C1c1ccc2c(c1)OCO2` (stereo not drawn) [Example 23]: the IC50 on human recombinant PDE5 came out at 690 nM.

What is called IC50 is the concentration that inhibits the measured activity by half.
